The results in this text go back to PubChem BioAssay (NCI).

Where “and” joins values, the source holds several entries; their conditions need not be identical. Equal entries are not always repeated.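 Exposure lasted 48 hours, with cells grown in 96-well plates and compounds tested at five concentrations. Abbreviation: GI50, concentration required for 50% inhibition of growth. TGI is the concentration that stops growth completely.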

Test systems include EKVX NSCLC; HCT-116 colon; HT29 colon; LOX IMVI melanoma; NCI-H522 lung; OVCAR-8 ovarian; PC-3 prostate; SR leukemia; SW-620 colon; UACC-62 melanoma.
Holding throughout (experiment): NCI anticancer screen, dose series, 48 h

For the compound `CCOc1cc(/C=C/C(=O)C(C(=O)/C=C/c2ccc(OC(=O)CNc3nnc(C)s3)c(OCC)c2)C(=O)CNc2nnc(C)s2)ccc1OC(=O)CNc1nnc(C)s1`, the GI50 in the assay with EKVX NSCLC was 3 µM; in the assay on HCT-116 colon it was 952 nM; with HT29 colon it was 0.515 µM; in the assay on LOX IMVI melanoma it was 897 nM; in the assay with NCI-H522 lung, 2030 nM; in the assay with OVCAR-8 ovarian it was 3.43 µM. The GI50 with PC-3 prostate is 1510 nM; in the assay with SR leukemia, 236 nM; in the assay on SW-620 colon, 1180 nM; in the assay with UACC-62 melanoma, 1430 nM. Also, the TGI turned out to be 15.2 µM in the assay with EKVX NSCLC; 4.42 µM in the assay with HCT-116 colon; 1.85 µM with HT29 colon; 2.21 µM with LOX IMVI melanoma; 5.71 µM with NCI-H522 lung; 14.4 µM in the assay with OVCAR-8 ovarian. Moreover, the TGI with PC-3 prostate was 15.6 µM; with SR leukemia, 1.45 µM; in the assay with SW-620 colon, 2.74 µM; in the assay with UACC-62 melanoma, 2.8 µM.

Consider `O=C(/C=C/c1nnc2n(Cc3ccccc3)c(=O)c3c4c(sc3n12)CCCC4)c1ccccc1`, for which the GI50 is over 100 µM with EKVX NSCLC; 310 nM in the assay on HCT-116 colon; 3480 nM with LOX IMVI melanoma; 1090 nM with NCI-H522 lung; 0.0387 µM in the assay with OVCAR-8 ovarian; 1420 nM with PC-3 prostate. Moreover, the GI50 with SR leukemia was 52.2 nM and 217 nM; with SW-620 colon it was 3140 nM; in the assay with UACC-62 melanoma, over 100000 nM. Besides, the TGI in the assay with EKVX NSCLC is over 100 µM; in the assay with HCT-116 colon, 1.12 µM; in the assay on NCI-H522 lung it was over 100 µM; in the assay on OVCAR-8 ovarian it was 0.419 µM; with PC-3 prostate, 4.44 µM; in the assay with SR leukemia, 0.658 µM. In addition, in the assay with UACC-62 melanoma, the TGI was over 100 µM.

Consider `COc1cc(/C=C/C(=O)c2c(C)nc3ccccc3c2C)ccc1OCCCCOc1cc2c(cc1OC)C(=O)N1CCC[C@H]1C=N2`, for which the GI50 is 1.74 µM in the assay with EKVX NSCLC; 432 nM in the assay on HCT-116 colon; 0.403 µM in the assay on HT29 colon; 339 nM in the assay on NCI-H522 lung; 0.245 µM in the assay with OVCAR-8 ovarian; 296 nM in the assay with PC-3 prostate. In addition, the GI50 with SR leukemia was 325 nM; in the assay with SW-620 colon it was 203 nM; with UACC-62 melanoma, 600 nM. In addition, the TGI with EKVX NSCLC stood at 3.56 µM; in the assay on HCT-116 colon it was 6.49 µM; in the assay with HT29 colon, 2.02 µM; in the assay with NCI-H522 lung, 1.26 µM; in the assay on OVCAR-8 ovarian, 0.703 µM; in the assay with PC-3 prostate, 1.35 µM. The TGI in the assay with SR leukemia was over 100 µM; in the assay on SW-620 colon, 0.538 µM; in the assay on UACC-62 melanoma, 2.02 µM.

As for `O=C(O)CNCCc1ccccc1`, the TGI with EKVX NSCLC, in the assay on HCT-116 colon, in the assay with HT29 colon, in the assay with LOX IMVI melanoma, in the assay with NCI-H522 lung and in the assay with OVCAR-8 ovarian was over 100 µM each time. The TGI in the assay on PC-3 prostate, with SR leukemia, in the assay with SW-620 colon and with UACC-62 melanoma was over 100 µM throughout.

`N#Cc1c2ccccc2c2nnc3ccccc3n12`: the GI50 was 12.6 µM in the assay with EKVX NSCLC; 28000 nM in the assay with HCT-116 colon; 42.6 µM with HT29 colon; 6470 nM in the assay on LOX IMVI melanoma; 11.1 µM in the assay on OVCAR-8 ovarian; 63500 nM in the assay on PC-3 prostate. In addition, the GI50 was 32700 nM in the assay on SR leukemia and 23100 nM in the assay on SW-620 colon. The TGI was 72.1 µM with EKVX NSCLC; over 100 µM in the assay with HCT-116 colon; over 100 µM with HT29 colon; 25.2 µM in the assay with LOX IMVI melanoma; 45.9 µM in the assay with OVCAR-8 ovarian; over 100 µM with PC-3 prostate. Moreover, the results for the TGI in the assay on SR leukemia and with SW-620 colon were over 100 µM and 91.8 µM, respectively.

For the compound `CCCCCCCC(CC(=O)NC(CO)C(=O)NC(CO)CC(C)C)OC(=O)CC(CCCCCCC)OC(=O)CC(CCCCCCC)OC1OC(C)C(O)C(OC2OC(C)C(O)C(O)C2O)C1O` (stereo not drawn), the TGI with EKVX NSCLC turned out to be 41.8 µM; with HCT-116 colon, 20.8 µM; in the assay with HT29 colon, 21.8 µM; in the assay on LOX IMVI melanoma it was 17.7 µM; with NCI-H522 lung, 29.5 µM; with OVCAR-8 ovarian it was 34.4 µM. In addition, the TGI in the assay with PC-3 prostate came out at 25.3 µM; in the assay on SR leukemia, 15.9 µM; in the assay on SW-620 colon it was 33.4 µM; with UACC-62 melanoma it was 27.9 µM.

Regarding `O=C(c1cccs1)c1nc2cc(Cl)ccc2[n+]([O-])c1C(F)(F)F`, the GI50 is 51.8 µM with EKVX NSCLC; 23200 nM in the assay on HCT-116 colon; 58.9 µM in the assay on HT29 colon; over 100000 nM with LOX IMVI melanoma; 29600 nM in the assay on NCI-H522 lung; over 100 µM with OVCAR-8 ovarian. For the same compound, the GI50 in the assay on PC-3 prostate was 71400 nM; in the assay with SR leukemia, 35400 nM; in the assay on SW-620 colon it was over 100000 nM; in the assay on UACC-62 melanoma it was 67800 nM. Moreover, the TGI in the assay with EKVX NSCLC, in the assay on HCT-116 colon, with HT29 colon, with LOX IMVI melanoma, with NCI-H522 lung and in the assay on OVCAR-8 ovarian was over 100 µM throughout. In addition, the TGI in the assay with PC-3 prostate, in the assay with SR leukemia, in the assay with SW-620 colon and with UACC-62 melanoma was over 100 µM throughout.

In the case of `CCCCN(CC)CCCCCCCCCCN1CCCc2cc(OC)ccc21`, the GI50 was 3.57 µM in the assay on EKVX NSCLC; 1730 nM in the assay on HCT-116 colon; 1.46 µM in the assay on HT29 colon; 1700 nM with LOX IMVI melanoma; 1660 nM in the assay with NCI-H522 lung; 3.92 µM in the assay on OVCAR-8 ovarian. Besides, the GI50 in the assay with PC-3 prostate is 3060 nM; in the assay with SR leukemia, 1940 nM; with SW-620 colon, 2230 nM; with UACC-62 melanoma, 2030 nM. The TGI in the assay with EKVX NSCLC was determined as 25.4 µM; in the assay on HCT-116 colon, 3.63 µM; in the assay with HT29 colon, 4.29 µM; in the assay on LOX IMVI melanoma it was 3.34 µM; in the assay on NCI-H522 lung, 3.5 µM; with OVCAR-8 ovarian it was 13.2 µM. The TGI in the assay on PC-3 prostate came out at 12.7 µM; in the assay with SR leukemia it was 5.56 µM; in the assay on SW-620 colon, 6.24 µM; in the assay on UACC-62 melanoma, 5.31 µM.

In the case of `CC(C)OCc1cc(CN2CCN(c3cccc(Cl)c3)CC2)c(O)c2ncccc12`, the GI50 in the assay with HCT-116 colon was 425 nM; in the assay on HT29 colon it was 6.76 µM; in the assay on LOX IMVI melanoma it was 416 nM; in the assay on NCI-H522 lung, 300 nM; with OVCAR-8 ovarian, 0.367 µM; in the assay on PC-3 prostate, 525 nM. Moreover, the results for the GI50 in the assay on SR leukemia, in the assay with SW-620 colon and with UACC-62 melanoma were 403 nM, 852 nM and 333 nM, respectively. The TGI in the assay on HCT-116 colon was determined as 3.79 µM; in the assay with HT29 colon it was 21.8 µM; in the assay on LOX IMVI melanoma, 10.2 µM; in the assay on NCI-H522 lung it was 2.26 µM; in the assay on OVCAR-8 ovarian, 11.6 µM; in the assay on PC-3 prostate it was 16.9 µM. In addition, the TGI in the assay with SR leukemia came to 10.2 µM; in the assay with SW-620 colon it was 17.4 µM; with UACC-62 melanoma, 1.43 µM.
